{"source": "patent US20040198738A1", "about": "“Preventives or remedies for diseaes caused by enos expression” (priority 2002, published 2004)", "key": {"ApoE-KO/eNOS-Tg mice": {"tested_on": "ApoE-KO/eNOS-Tg mice", "test": "Sclerotic lesion area of aorta (Sudan III staining, image analysis) in mice fed high cholesterol diet", "format": "in vivo, mouse", "conditions": "BH4 10 mg/kg/day added to high cholesterol diet, FIG. 3", "source_text": "37 mice (ApoE-KO/eNOS-Tg) produced in Example 10 were ablactated at the age of 4 weeks, and then fed on high cholesterol diet (1.25% cholesterol, 7.5% cacao butter, 7.5% casein, and 0.5% sodium cholate) for 12 weeks.\nThereafter, the 16-week-old mice were anesthetized with pentobarbital, and the aorta was perfused with a physiological saline solution containing 10 U/ml heparin. Thereafter, the aorta corresponding to the portion from the center of the left ventricle to the bifurcation portion of the iliac artery was excised and fixed with 4% paraformaldehyde overnight. Surrounding tissues were eliminated from the distal portion (from the aortic arch to the bifurcation portion of the iliac artery) of the excised aorta. The aorta was longitudinally opened and fixed on a dish coated with silicone, and then stained with Sudan III. The obtained light microscope image was analyzed using NIH 1.61 Imaging Software. The lesion formation area was expressed by lesion area/the total area of aorta. In the figure, * denotes p<0.0001 with respect to ApoE-KO male, and the cross denotes p<0.001 with respect to ApoE-KO female.\n6 to 8 mice (ApoE-KO/eNOS-Tg) produced in Example 10 were used per group. BH4 non-administration groups were fed on the high cholesterol diet (refer to Example 10), and BH4 administration groups were fed on the high cholesterol diet to which BH4 was added at 10 mg/kg/day. […]"}, "[1]": {"tested_on": "NO from aortic endothelium of ApoE-KO/eNOS-Tg mice", "test": "Production of NO in excised aorta (DAF-2 DA fluorescence, acetylcholine stimulated)", "format": "in vivo, mouse", "conditions": "12-week-old mice, high cholesterol diet for 8 weeks, BH4 administered vs not administered; FIG. 5; p<0.01", "source_text": "The aorta containing the portion from the aortic arch to the bifurcation portion of the iliac artery was excised from each of 12-week-old mice (ApoE-KO/eNOS-Tg) fed on a high cholesterol diet for 8 weeks. Immediately thereafter, surrounding portions were eliminated in PBS with pH 7.4. The sample was mounted on a black dish filled with a phosphate buffer (pH 7.4) containing 1.5 mmol/L calcium chloride, and it was then placed in a light-shielding box to avoid interference of external light.\nDiaminofluorescein-2 diacetate (DAF-2 DA) was added thereto to the final concentration of 10 μmol/L. Then, the sample was left at ambient temperature for 5 minutes, and thereafter, it was excited with 485 nm blue light. The fluorescence generated as a result of the reaction between DAF-2 DA and NO was detected, using a luminograph equipped with a band filter with a center of 532 nm, and measurement was carried out for 1 second at an intensity of wave length of 515 nm. To examine the production of NO from the aortic endothelium, the sample was left in 1 μmol/L acetylcholine solution for 5 minutes, and then the fluorescent image was measured. After completion of each experiment, in order to determine whether the measured sample was a plaque area or non-plaque area, the sample was stained with Sudan III and observed. […]"}, "[2]": {"tested_on": "superoxide in plaque area of aorta of ApoE-KO/eNOS-Tg mice", "test": "Production of superoxide in excised aorta (MCLA chemiluminescence)", "format": "in vivo, mouse", "conditions": "BH4 added high cholesterol diet for 8 weeks, 12 weeks old mice; vs non-administration; FIG. 4; p<0.01", "description": "Groups were prepared, each of which consisted of 6 to 8 mice (12 weeks old, ApoE-KO/eNOS-Tg) fed on BH4 added or BH4 non-added high cholesterol diet for 8 weeks in the same manner as in Example 12. The aorta was excised from these mice, peripheral tissues were eliminated, and the remaining portion was mounted on a black silicone dish filled with PBS with pH 7.4. The sample was placed in a light-shielding box to avoid interference of external light, and thereafter, MCLA was added to the chamber to the final concentration of […]. Thereafter, light emission generated as a result of the reaction between MCLA (2-methyl-6-(4-methoxyphenyl)-3,7-dihydroimidazol[1,2-a]pyrazin-3-one-hydrochloride) and superoxide anion was measured for 5 minutes. This measurement was repeated 3 times.\nThe light emission data was served in a computer, and the obtained nonlinear gray scale images were converted into pseudocolor images. The intensity of chemiluminescence due to superoxide was analyzed using WinLight 32 software. The plaque area was defined as an area that was stained with Sudan III. Approximately 10 plaque areas and 10 non-plaque areas ([…]) were randomly selected from each mouse, followed by measurement. The background level was subtracted from each chemiluminescent signal intensity. […] The results are shown as relative values. […]"}, "[3]": {"conditions": "from treatment for Parkinson's disease in Japanese Patent Laid-Open No. 59-25323; cited from earlier work"}, "[4]": {"test": "Acute toxicity of BH4 dihydrochloride in rat, oral administration", "format": "in vivo", "source_text": "The active ingredient used in the present invention is most preferably (6R)-L-erythro-5,6,7,8-tetrahydrobiopterin (BH4) or a salt thereof. However, analogues thereof such as (6R, S)-5,6,7,8-tetrahydrobiopterin, 1′,2′-diacetyl-5,6,7,8-tetrahydrobiopterin, sepiapterin, 6-methyl-5,6,7,8-tetrahydropterin, 6-hydroxymethyl-5,6,7,8-tetrahydropterin, 6-phenyl-5,6,7,8-tetrahydropterin, or a salt thereof, may also be used. However, needless to say, BH4 that is a natural substance existing in an organism is preferable. […] In addition, as is clear from the description of a treatment for Parkinson's disease in Japanese Patent Laid-Open No. 59-25323, the toxicity of (6R, S)-5,6,7,8-tetrahydrobiopterin, that is, non-optically pure substance, is weak. Accordingly, this compound can also be used for the treatment in the present invention. Compounds represented by the formula (I) other than the above described compounds have almost no acute toxicity."}}}
{"molecule": "CC(O)C(O)C1CNc2nc(N)[nH]c(=O)c2N1", "note": "[BH4, (6R)-L-erythro-5,6,7,8-tetrahydrobiopterin]", "values": [{"measurement": "arteriosclerosis", "setting": "ApoE-KO/eNOS-Tg mice", "result": "suppressed"}, {"measurement": "lesion area (lesion area/total area of aorta)", "setting": "ApoE-KO/eNOS-Tg mice; vs non-administration group, p<0.05 male, p<0.01 female", "result": "reduced"}, {"measurement": "production of NO in non-plaque area", "setting": "[1]", "result": "significantly increased"}, {"measurement": "production of superoxide in plaque area", "setting": "[2]", "result": "significantly reduced"}]}
{"molecule": "C[C@H](O)[C@H](O)C1CNc2nc(N)[nH]c(=O)c2N1", "note": "(stereo partly drawn) [(6R, S)-5,6,7,8-tetrahydrobiopterin]", "values": [{"measurement": "toxicity", "setting": "[3]", "result": "weak"}]}
{"molecule": "C[C@H](O)[C@H](O)[C@H]1CNc2[nH]c(N)nc(=O)c2N1.Cl.Cl", "note": "[BH4 dihydrochloride]", "values": [{"measurement": "acute toxicity", "setting": "[4]", "result": "≥ 2 g/kg (body weight)"}, {"measurement": "toxicity (in words)", "setting": "[4]", "result": "almost no toxicity is found"}]}
